Assay [1] deals with T1, isolated kinase domain of the human FLT3 receptor (a.a. 571-993) (Homo sapiens, UniProt P36888).
T1 construct: human FLT3 receptor (a.a. 571-993)
T1 sequence (P36888 571-993): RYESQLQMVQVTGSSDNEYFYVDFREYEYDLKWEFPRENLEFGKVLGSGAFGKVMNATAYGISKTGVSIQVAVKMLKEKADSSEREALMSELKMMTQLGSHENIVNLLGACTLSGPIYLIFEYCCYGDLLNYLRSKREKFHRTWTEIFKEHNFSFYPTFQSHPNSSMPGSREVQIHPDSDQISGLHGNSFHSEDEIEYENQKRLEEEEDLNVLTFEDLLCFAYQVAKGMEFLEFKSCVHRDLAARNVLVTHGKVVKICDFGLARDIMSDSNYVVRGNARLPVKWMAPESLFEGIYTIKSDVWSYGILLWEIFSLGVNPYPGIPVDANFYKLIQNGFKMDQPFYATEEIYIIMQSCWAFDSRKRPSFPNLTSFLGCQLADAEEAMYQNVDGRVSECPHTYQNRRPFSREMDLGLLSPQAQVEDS
Description: FLT3 fluorescence polarization kinase assay. The conditions noted are these: 150 uM ATP; uncertainty ±10%. Type of assay: biochemical. In general terms: In fluorescence polarisation assays a small probe gives low polarisation when free and higher when bound to something large.

In another assay the test system is MV4-11 cells. Description: Inhibition of MV4-11 cell proliferation (CellTiterGlo, 72 h). The class given is cell-based. The conditions noted are these: Homo sapiens; 72 h growth inhibition; uncertainty ±20%. (In ATP-based viability assays light output follows the ATP content of the culture.)

The record followed here is patent US20070004660A1, “Synergistic Modulation of Flt3 Kinase Using Alkylquinolines and Alkylquinazolines” (priority 2005, published 2007).

SMILES strings stand for the structures.

Broadly, the IC50 is the point on the concentration scale where inhibition reaches its midpoint. A low value points to greater potency in that assay. In the case of `O=C(Nc1ccc(N2CCOCC2)cc1)N1CCC(c2ncnc3cc(OCCN4CCOCC4)ccc23)CC1` [Example 96, 4-[7-(2-Morpholin-4-yl-ethoxy)-quinazolin-4-yl]-piperidine-1-carboxylic acid (4-morpholin-4-yl-phenyl)-amide], the IC50 amounted to 36 nM in assay [1] and 235 nM in the assay on MV4-11 cells.
`CC(C)Oc1ccc(NC(=O)N2CCC(c3ncnc4ccccc34)CC2)cc1` [Example 8, 4-Quinazolin-4-yl-piperidine-1-carboxylic acid (4-isopropoxy-phenyl)-amide]: the IC50 in assay [1] is 200 nM; in the assay with MV4-11 cells, 533 nM.
As for `CC(=O)N1CCN(CCOc2ccc3c(C4CCN(C(=O)Nc5ccc(N6CCOCC6)cc5)CC4)ncnc3c2)CC1` [Example 97, 4-{7-[2-(4-Acetyl-piperazin-1-yl)-ethoxy]-quinazolin-4-yl}-piperidine-1-carboxylic acid (4-morpholin-4-yl-phenyl)-amide], the IC50 was found to be 28 nM in assay [1] and 262 nM with MV4-11 cells.
Regarding `COc1cc2ncnc(C3CCN(C(=O)Nc4ccc(-c5ccc(Cl)nc5)cc4)CC3)c2cc1OC` [Example 60, 4-(6,7-Dimethoxy-quinazolin-4-yl)-piperidine-1-carboxylic acid [4-(6-chloro-pyridin-3-yl)-phenyl]-amide], the IC50 was 360 nM in assay [1] and 1400 nM in the assay with MV4-11 cells.
The like results for `COc1cc2ncnc(C3CCN(C(=O)Nc4ccccc4)CC3)c2cc1OC` [Example 45, 4-(6,7-Dimethoxy-quinazolin-4-yl)-piperidine-1-carboxylic acid phenylamide] were, in that order, 3700 nM and 16700 nM.
On to `CCN1CCN(CCCOc2ccc3c(C4CCN(C(=O)Nc5ccc(N6CCOCC6)cc5)CC4)ncnc3c2)CC1` [Example 115, 4-{7-[3-(4-Ethyl-piperazin-1-yl)-propoxy]-quinazolin-4-yl}-piperidine-1-carboxylic acid (4-morpholin-4-yl-phenyl)-amide], for which the half-inhibitory concentration (IC50) is 16 nM in assay [1] and 104 nM in the assay with MV4-11 cells.
For the compound `O=C(Nc1ccc(N2CCOCC2)cc1)N1CCC(c2ncnc3cc(OCCCN4CCC[C@H]4CO)ccc23)CC1` [Example 119, (S)-4-{7-[3-(2-Hydroxymethyl-pyrrolidin-1-yl)-propoxy]-quinazolin-4-yl}-piperidine-1-carboxylic acid (4-morpholin-4-yl-phenyl)-amide], the IC50 worked out at 47 nM in assay [1] and 53 nM in the assay with MV4-11 cells.
As to `CCN(CC)CC#Cc1ccc2ncnc(C3CCN(C(=O)Nc4ccc(OC(C)C)cc4)CC3)c2c1` [Example 13, 4-[6-(3-Diethylamino-prop-1-ynyl)-quinazolin-4-yl]-piperidine-1-carboxylic acid (4-isopropoxy-phenyl)-amide], the IC50 in assay [1] was found to be 72 nM; in the assay with MV4-11 cells, 59 nM.
Consider `O=C1CCCN1CCCOc1ccc2c(C3CCN(C(=O)Nc4ccc(N5CCCC5)nc4)CC3)ncnc2c1` [Example 89, 4-{7-[3-(2-Oxo-pyrrolidin-1-yl)-propoxy]-quinazolin-4-yl}-piperidine-1-carboxylic acid (6-pyrrolidin-1-yl-pyridin-3-yl)-amide], for which the results for the IC50 (in assay [1]; with MV4-11 cells) were 2 nM and 24 nM, respectively.
Take `O=C(NCCCOc1ccc2c(C3CCN(C(=O)Nc4ccc(N5CCCC5)nc4)CC3)ncnc2c1)N1CCOCC1` [Example 112, Morpholine-4-carboxylic acid (3-{4-[1-(6-pyrrolidin-1-yl-pyridin-3-ylcarbamoyl)-piperidin-4-yl]-quinazolin-7-yloxy}-propyl)-amide]: the IC50 in assay [1] stood at 5 nM; with MV4-11 cells it was 98 nM.
`O=C(Nc1ccc(N2CCOCC2)cc1)N1CCC(c2ncnc3cc(OCCCN4CCCCC4)ccc23)CC1` [Example 75]: the 50% inhibitory concentration (IC50) in assay [1] amounted to 49 nM; in the assay on MV4-11 cells, 70 nM.
With `O=C1CCCN1CCCOc1ccc2c(C3CCN(C(=O)Nc4ccc(N5CCOCC5)nc4)CC3)ncnc2c1` [Example 72, 4-{7-[3-(2-Oxo-pyrrolidin-1-yl)-propoxy]-quinazolin-4-yl}-piperidine-1-carboxylic acid (6-morpholin-4-yl-pyridin-3-yl)-amide], the IC50 in assay [1] was 27 nM; with MV4-11 cells, 54 nM.
Consider `COc1cc2ncnc(C3CCN(C(=O)Nc4ccc(OC5CCCC5)nc4)CC3)c2cc1OC` [Example 69, 4-(6,7-Dimethoxy-quinazolin-4-yl)-piperidine-1-carboxylic acid (6-cyclopentyloxy-pyridin-3-yl)-amide], for which the IC50 was 76 nM in assay [1] and 59 nM in the assay on MV4-11 cells.
For `CC(C)Oc1ccc(NC(=O)N2CCC(c3ncnc4cc(OCCCOS(C)(=O)=O)ccc34)CC2)cc1` [Example 121, Methanesulfonic acid 3-{4-[1-(4-isopropoxy-phenylcarbamoyl)-piperidin-4-yl]-quinazolin-7-yloxy}-propyl ester] the same measures were 3 nM and 27 nM.
In the case of `O=C1CCCN1CCOc1ccc2c(C3CCN(C(=O)Nc4ccc(N5CCCC5)cc4)CC3)ncnc2c1` [Example 74, 4-{7-[2-(2-Oxo-pyrrolidin-1-yl)-ethoxy]-quinazolin-4-yl}-piperidine-1-carboxylic acid (4-pyrrolidin-1-yl-phenyl)-amide], the IC50 in assay [1] was determined as 1 nM; in the assay with MV4-11 cells it was 40 nM.
Turning to `CC(C)Oc1ccc(NC(=O)N2CCC(c3ncnc4cc(OCCCN5CCCC5=O)ccc34)CC2)cc1` [Example 67, 4-{7-[3-(2-Oxo-pyrrolidin-1-yl)-propoxy]-quinazolin-4-yl}-piperidine-1-carboxylic acid (4-isopropoxy-phenyl)-amide], the results for the IC50 (in assay [1]; in the assay with MV4-11 cells) were 3 nM and 9 nM, respectively.
For `CCCCc1ccc(NC(=O)N2CCC(c3ncnc4cc(OC)c(OC)cc34)CC2)cc1` [Example 43, 4-(6,7-Dimethoxy-quinazolin-4-yl)-piperidine-1-carboxylic acid (4-butyl-phenyl)-amide] the same measures were 24 nM and 197 nM.
In the case of `O=C1CCCN1CCCOc1ccc2c(C3CCN(C(=O)Nc4cnc(N5CCCC5)nc4)CC3)ncnc2c1` [Example 90, 4-{7-[3-(2-Oxo-pyrrolidin-1-yl)-propoxy]-quinazolin-4-yl}-piperidine-1-carboxylic acid (2-pyrrolidin-1-yl-pyrimidin-5-yl)-amide], the IC50 in assay [1] was 73 nM; in the assay with MV4-11 cells it was 187 nM.
The like results for `COc1cc2ncnc(C3CCN(C(=O)Nc4ccc(C5CCN(C(=O)OC(C)(C)C)CC5)cc4)CC3)c2cc1OC` [Example 63, 4-(4-{[4-(6,7-Dimethoxy-quinazolin-4-yl)-piperidine-1-carbonyl]-amino}-phenyl)-piperidine-1-carboxylic acid tert-butyl ester] were, in that order, 2000 nM and 4100 nM.
With `CN1CCC(COc2ccc3c(C4CCN(C(=O)Nc5ccc(N6CCOCC6)nc5)CC4)ncnc3c2)CC1` [Example 108, 4-[7-(1-Methyl-piperidin-4-ylmethoxy)-quinazolin-4-yl]-piperidine-1-carboxylic acid (6-morpholin-4-yl-pyridin-3-yl)-amide], the IC50 in assay [1] stood at 4 nM; in the assay with MV4-11 cells it was 173 nM.
For `COc1cc2ncnc(C3CCN(CC(=O)Nc4ccc(C(C)C)cc4)CC3)c2cc1OC` [Example 9, 2-[4-(6,7-Dimethoxy-quinazolin-4-yl)-piperidin-1-yl]-N-(4-isopropyl-phenyl)-acetamide] the same measures were 13 nM and 29 nM.
The like results for `COc1cc2ncnc(C3CCN(C(=O)Nc4ccc(N5CCCC5=O)cc4)CC3)c2cc1OC` [Example 57, 4-(6,7-Dimethoxy-quinazolin-4-yl)-piperidine-1-carboxylic acid [4-(2-oxo-pyrrolidin-1-yl)-phenyl]-amide] were, in that order, 700 nM and 1200 nM.
Take `CS(=O)(=O)NCCCOc1ccc2c(C3CCN(C(=O)Nc4ccc(OC5CCCC5)nc4)CC3)ncnc2c1` [Example 88, 4-[7-(3-Methanesulfonylamino-propoxy)-quinazolin-4-yl]-piperidine-1-carboxylic acid (6-cyclopentyloxy-pyridin-3-yl)-amide]: the results for the IC50 (in assay [1]; in the assay on MV4-11 cells) were 2 nM and 37 nM, respectively.
For `O=C(Nc1ccc(N2CCCC2)nc1)N1CCC(c2ncnc3cc(OCCN4CCOC4=O)ccc23)CC1` [Example 92, 4-{7-[2-(2-Oxo-oxazolidin-3-yl)-ethoxy]-quinazolin-4-yl}-piperidine-1-carboxylic acid (6-pyrrolidin-1-yl-pyridin-3-yl)-amide] the same measures were 0.2 nM and 21 nM.
Consider `COc1cc2ncnc(C3CCN(C(=O)Nc4ccc(OC(C)C)nc4)CC3)c2cc1OC` [Example 56, 4-(6,7-Dimethoxy-quinazolin-4-yl)-piperidine-1-carboxylic acid (6-isopropoxy-pyridin-3-yl)-amide], for which the IC50 was determined as 30 nM in assay [1] and 189 nM in the assay with MV4-11 cells.
The like results for `CS(=O)(=O)NCCCOc1ccc2c(C3CCN(C(=O)Nc4ccc(N5CCOCC5)cc4)CC3)ncnc2c1` [Example 66, 4-[7-(3-Methanesulfonylamino-propoxy)-quinazolin-4-yl]-piperidine-1-carboxylic acid (4-morpholin-4-yl-phenyl)-amide] were, in that order, 18 nM and 14 nM.
For `CS(=O)(=O)OCCCOc1ccc2c(C3CCN(C(=O)Nc4ccc(N5CCOCC5)cc4)CC3)ncnc2c1` [Example 122, Methanesulfonic acid 3-{4-[1-(4-morpholin-4-yl-phenylcarbamoyl)-piperidin-4-yl]-quinazolin-7-yloxy}-propyl ester], the results for the IC50 (in assay [1]; with MV4-11 cells) were 23 nM and 136 nM, respectively.
